According to US20200397818A1, “Multi-Mineral Supplement for Improved Bone Density” (priority 2017, published 2020):

Test system: human mescenchymal stem cell (hMSCs)
Conditions: MTT
Protocol: The MTT colorimetric cell viability provides a straightforward and quantifiable method for determining cell viability in a wide variety of cell types. An MTT assay was used to determine the cytotoxicity of Mg, Sr, Cu, and/or Zn ions in human mescenchymal stem cells. In a typical assay 2.8×10^4 cells/cm^2 human mescenchymal stem cell (hMSCs) were cultured in a low glucose DMEM culture medium supplemented with 10% (v/v) fetal bovine serum (FBS, Biowest, France), antibiotics (100 U/ml of penicillin and 100 μg/ml of streptomycin), and 2 mM L-glutamine using 96-well tissue culture plates. After one day of cell culture, testing solutions with a range of concentrations (Table 1) of different potential ions were added to the wells. The MTT solution was prepared by adding thiazolyl blue tetrazolium bromide powder to the phosphate buffered saline (PBS, OXOID Limited, England) and 10 μL of 5 mg/mL MTT solution was added on the next day. 100 μL of 10% sodium dodecyl sulfate (SDS, Sigma, USA) in 0.01 M hydrochloric acid was added to each well after four hours of culturing and incubated at 37° C. in an atmosphere of 5% CO2 and 95% air overnight. Finally, the absorbance was recorded by a multimode detector at a wavelength of 570 nm with a reference wavelength of 640 nm. Cell viability was quantified from the absorbance readings.

## O=S(=O)([O-])[O-].[Cu+2] [Cu ions, CuSO4]
Ion tested independently
  ion concentration with loss of viability: ≥ 25 ppm

## [Cl-].[Cl-].[Mg+2] [Mg ion, MgCl2]
Ion tested independently
  ion concentration above which most of the cells became non-viable: exceeded 1000 ppm
  ion concentration above which viability began to decrease: exceeded 400 ppm

## [Cl-].[Cl-].[Sr+2] [Sr ion, SrCl2]
Ion concentrations of 100 to 400 ppm
  cell viability relative to control cells: 115%
Treatment with up to 1,000 ppm
  cell viability: ~100%

## [Cl-].[Cl-].[Zn+2] [Zn ions, ZnCl2]
Ion tested independently
  ion concentration above which significant cell death was found: exceeded 1 ppm
